Columns and labels:
[1] = target: T1, Ba/F3_EGFR del19/T790M/C797S cells (Homo sapiens, UniProt P00533, T790M/C797S, cells depend on it, form not given); assay: Ba/F3_EGFR (del19-T790M-C797S) cell proliferation inhibition, CTG, method 1; format: cell-based; settings: 700 cells/well, 72 h, read-out: Ba/F3_EGFR (del19-T790M-C797S) cell proliferation inhibition (IC50 value) Method 1
Procedure: The cells were cultured in a 37° C., 5% CO2 incubator.
Cell plating and compound treatment: 1) Cells are routinely cultured until the cell saturation is 80%-90%, and when the number reaches the requirement, the cells are collected. 2) Resuspend in the corresponding fresh medium, take a small amount of cells to count, and prepare a cell suspension with a suitable density. 3) Inoculate the cell suspension into a 384-well plate at 700 cells/well, 30 μL per well. 4) Use Echo to add the compound to the corresponding cell well. The maximum starting concentration of the compound is 1-10 μM, 3 folds dilution, 8 concentrations.
CTG method detection: 1) Add 30 μL of CTG reagent (CelltiterGlo kit) to each well, and let it stand for 30 minutes at 37° C. and 5% CO2 in the dark. 2) Use Envision instrument to read the chemiluminescence signal value.
Data analysis: IC50 results are analyzed by GraphPad Prism 6 software. […] X: log value of compound concentration; Y: inhibition rate (% inhibition); inhibition rate (% inhibition)=(blank control well reading−compound well reading)/(blank control well reading−positive control reading)×100.

[2] = Pharmacokinetic study in rats after intragastrical administration; format: in vivo; settings: male, rat, plasma, po, SD rats, 3 mg/kg; for AUC(0-t): read-out: AUC0-24 h
Procedure: Example 55: Pharmacokinetic Study in Rats
Instruments: XEVO TQ-S LC/MS instrument produced by Waters. All measurement data is collected and processed by Masslynx V4.1 software, and the data is calculated and processed by Microsoft Excel. Using WinNonLin 8.0 software, the statistical moment method was used to calculate the pharmacokinetic parameters. Mainly include kinetic parameters Tmax, T1/2, Cmax, AUClast etc. […] Injection volume: 5 μL.
Animals: 3 male SD rats with a weight range of 200-220 g. After purchase, they will be kept in the laboratory of the Experimental Animal Center for 2 days and then used. They will be fasted for 12 hours predose and 4 hours after dosing. Drinking water is free during the test. After the rats were gavage, blood samples were taken according to the established time point.
Solvent: 0.5% Methylcellulose (aqueous solution containing 0.4% Tween 80 and 1% ethanol). Preparation of the solution for intragastrical administration: accurately weigh the compound, add it to the solvent, and ultrasonically at room temperature for 5 minutes to completely dissolve the drug, and prepare a 0.3 mg/ml medicinal solution.
Pharmaceutical samples: representative compounds of the structure shown in the patented formula (I) of the present invention, generally, multiple samples with similar structures (with a molecular weight difference of more than 2 units) are taken, accurately weighed, and administered together (cassette PK). In this way, multiple compounds can be screened at the same time and their oral absorption rates can be compared. A single administration was also used to study the pharmacokinetics of the drug sample in rats.
After intragastrical administration, blood was taken from the orbit at 0.25, 0.5, 1, 2, 4, 9, 12 and 24 hours, and placed in a plastic centrifuge tube pretreated with sodium heparin. After centrifugation, the supernatant plasma was used for LC-MS/MS analysis.
Accurately weigh the compounds to prepare different concentrations, perform quantitative analysis on mass spectrometry to establish a standard curve, and then test the concentration of the above-mentioned compound in the plasma to obtain the compound concentration at different time points. All measurement data are collected and processed by relevant software, and the statistical moment method is used to calculate the pharmacokinetic parameters (mainly including kinetic parameters Tmax, T1/2, Cmax, AUClast etc). The results are as follows:
Table 7: Pharmacokinetic Parameters of the Compounds after Intragastrical Administration in SD Rats

[3] = target: EGFR (T790M/L858R/C797S) (Homo sapiens, UniProt P00533, C797S/L858R/T790M); assay: EGFR (T790M/L858R/C797S) kinase activity inhibition, Caliper mobility shift assay; format: biochemical; settings: kinase 2.5 nM, ATP 40 μM
Procedure: The basic method is the same as ALK activity test method 2. The test concentration of the compound starts at 2 μM, and is diluted 5 folds into 6 (7 for individual compounds) concentration points. […] Add 30 μL of stop solution containing EDTA to stop the kinase reaction. Use Caliper EZ Reader to read the conversion rate. Inhibition rate %=(Average positive control conversion rate %−Sample conversion rate %/(Average positive control conversion rate %−Average negative control conversion rate %). Among them: negative control wells represent the conversion rate readings without enzyme activity; positive control wells represent the conversion rate readings of wells without compound inhibition. Take the log value of the concentration as the X-axis, and the percentage inhibition rate on the Y-axis. Log (inhibitor) vs. response—Variable slope of analysis software GraphPad Prism 5 was used to fit the curve to obtain the IC50 value of each compound on the enzyme activity. Calculation formula: Y=Bottom+(Top−Bottom)/(1+10^((Log IC50−X)*HillSlope)).

[4] = target: MAP4K1 (HPK1) (Homo sapiens, UniProt Q92918); assay: MAP4K1 (HPK1) kinase activity inhibition, Caliper mobility shift assay; format: biochemical; settings: kinase 1.25 nM, ATP 10.1 μM
Procedure: 4. MAP4K1 (HPK1) Kinase Activity Inhibition Experiment: Caliper mobility shift assay was used to detect the inhibitory effect of the compound on MAP4K1 (HPK1) kinase activity. The test concentration of the compound starts at 500 nM, and is diluted 5 folds into 5 concentration points. Use a dispenser Echo 550 to transfer 250 nL 100-fold final concentration of the compound to the target plate 3573, add 10 μL of MAP4K1 (HPK1) kinase solution with a final concentration of 1.25 nM, and incubate for 10 minutes at room temperature (the negative control well contains 10 μL kinase buffer and 250 nL 100% DMSO; the positive control well contains 10 μL kinase solution and 250 nL 100% DMSO). On the kinase MAP4K1 (HPK1), add 15 μL of ATP with a final concentration of 10.1 μM and 3 μM substrate peptide No. 25 mixed solution to react for 120 minutes. Add 30 μL of stop solution containing EDTA to stop the kinase reaction. Use Caliper EZ Reader to read the conversion rate. Inhibition rate %=(Average positive control conversion rate %−Sample conversion rate %/(Average positive control conversion rate %−Average negative control conversion rate %). Among them: negative control wells represent the conversion rate readings without enzyme activity; positive control wells represent the conversion rate readings of wells without compound inhibition. Take the log value of the concentration as the X-axis, and the percentage inhibition rate on the Y-axis. Log (inhibitor) vs. response—Variable slope of analysis software GraphPad Prism 5 was used to fit the curve to obtain the IC50 value of each compound on the enzyme activity. Calculation formula: Y=Bottom+(Top−Bottom)/(1+10 ^((Log IC50−X)*HillSlope)).

[5] = target: ALK (Homo sapiens, UniProt Q9UM73); assay: ALK kinase activity inhibition, Caliper mobility shift assay, method 2; format: biochemical; settings: ALK 1.25 nM, ATP 30 μM
Procedure: 2. ALK Kinase Activity Inhibition Experiment:
Method 2: Caliper mobility shift assay was used to measure ALK protein kinase activity. The method is basically the same as method 1, with individual parameters adjusted. The initial concentration of the compound is 1 mM, and sequentially diluted 4-fold to make 6 points (7 points for some individual compounds). Use a dispenser Echo 550 to transfer 250 nL of 100-fold final concentration of the compound to the target plate 3573, add 10 μL ALK with final concentration of 1.25 nM, incubate at room temperature for 10 minutes (the negative control well contains 10 μL kinase buffer and 250 nL 100% DMSO; the positive control well contains 10 μL kinase solution and 250 nL 100% DMSO). On the kinase ALK, add 15 μL of ATP with a final concentration of 30 μM and 3 μM of the substrate peptide No. 22 mixed solution to react for 25 minutes; add 30 μL of stop detection solution containing EDTA to stop the kinase reaction. Use Caliper EZ Reader to read the conversion rate. Inhibition rate %=(Average positive control conversion rate %−Sample conversion rate %/(Average positive control conversion rate %−Average negative control conversion rate %). Among them: negative control wells represent the conversion rate readings without enzyme activity; positive control wells represent the conversion rate readings of wells without compound inhibition. Take the log value of the concentration as the X-axis, and the percentage inhibition rate on the Y-axis. Log (inhibitor) vs. response—Variable slope of analysis software GraphPad Prism 5 was used to fit the curve to obtain the IC50 value of each compound on the enzyme activity. Calculation formula: Y=Bottom+(Top−Bottom)/(1+10^((Log IC50−X)*HillSlope)).

[6] = target: T1, Ba/F3_EGFR del19/T790M/C797S cells; assay: Ba/F3_EGFR (del19-T790M-C797S) cell proliferation inhibition, CTG, method 2; format: cell-based; settings: 2000 cells/well, 72 h, read-out: Ba/F3_EGFR (del19-T790M-C797S) cell proliferation inhibition (IC50 value) Method 2
Procedure: Take a small amount of cells and count them with ViCell. 2) Adjust the cell density, inoculate the cells in a 384-well plate at 2000/well, and incubate in a 37° C., 5% CO2 incubator for 4 hours. 3) Set up the program of Tecan HP D300, add the compound to the well plate. The maximum initial concentration of the compound is 1-4 μM, 3 folds dilution, 9 concentrations, and the DMSO content in each well is unified to 0.2%.
CTG method detection: 1) Take out the CTG reagent and cell plate and equilibrate at room temperature for 30 min, add 25 μL CTG to each well, shake at medium speed for 2 min, centrifuge at 1000 rpm for 1 minutes, and stand still at room temperature for 10 minutes. 2) Envision instrument reads the chemiluminescence signal value.
Data analysis: IC50 results are analyzed by IDBS's XL-fit 5.0 software.

Sequence of MAP4K1 (HPK1) (Q92918 whole entry): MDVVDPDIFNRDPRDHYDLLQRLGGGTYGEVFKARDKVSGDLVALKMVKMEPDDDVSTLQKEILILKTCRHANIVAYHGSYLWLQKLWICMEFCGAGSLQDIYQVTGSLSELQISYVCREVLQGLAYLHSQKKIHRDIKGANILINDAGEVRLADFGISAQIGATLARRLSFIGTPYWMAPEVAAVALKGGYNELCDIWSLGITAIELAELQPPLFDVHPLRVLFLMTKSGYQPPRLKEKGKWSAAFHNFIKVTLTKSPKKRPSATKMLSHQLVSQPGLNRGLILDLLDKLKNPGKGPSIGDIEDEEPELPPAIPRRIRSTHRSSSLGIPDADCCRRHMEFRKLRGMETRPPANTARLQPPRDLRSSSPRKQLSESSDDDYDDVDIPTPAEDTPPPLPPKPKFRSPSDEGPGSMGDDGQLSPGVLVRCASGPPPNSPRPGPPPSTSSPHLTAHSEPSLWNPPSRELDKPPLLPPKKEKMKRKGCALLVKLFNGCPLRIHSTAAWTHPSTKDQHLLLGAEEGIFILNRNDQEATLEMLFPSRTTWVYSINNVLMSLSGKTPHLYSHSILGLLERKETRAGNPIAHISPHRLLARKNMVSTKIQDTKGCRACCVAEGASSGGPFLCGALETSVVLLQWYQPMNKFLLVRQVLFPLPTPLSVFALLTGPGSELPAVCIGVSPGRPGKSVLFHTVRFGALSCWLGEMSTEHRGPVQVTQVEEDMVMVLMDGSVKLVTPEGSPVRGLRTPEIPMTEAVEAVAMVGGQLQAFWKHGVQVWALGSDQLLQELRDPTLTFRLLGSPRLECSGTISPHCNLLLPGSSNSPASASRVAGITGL
Sequence of EGFR (T790M/L858R/C797S) (P00533 25-1210 T790M/C797S/L858R): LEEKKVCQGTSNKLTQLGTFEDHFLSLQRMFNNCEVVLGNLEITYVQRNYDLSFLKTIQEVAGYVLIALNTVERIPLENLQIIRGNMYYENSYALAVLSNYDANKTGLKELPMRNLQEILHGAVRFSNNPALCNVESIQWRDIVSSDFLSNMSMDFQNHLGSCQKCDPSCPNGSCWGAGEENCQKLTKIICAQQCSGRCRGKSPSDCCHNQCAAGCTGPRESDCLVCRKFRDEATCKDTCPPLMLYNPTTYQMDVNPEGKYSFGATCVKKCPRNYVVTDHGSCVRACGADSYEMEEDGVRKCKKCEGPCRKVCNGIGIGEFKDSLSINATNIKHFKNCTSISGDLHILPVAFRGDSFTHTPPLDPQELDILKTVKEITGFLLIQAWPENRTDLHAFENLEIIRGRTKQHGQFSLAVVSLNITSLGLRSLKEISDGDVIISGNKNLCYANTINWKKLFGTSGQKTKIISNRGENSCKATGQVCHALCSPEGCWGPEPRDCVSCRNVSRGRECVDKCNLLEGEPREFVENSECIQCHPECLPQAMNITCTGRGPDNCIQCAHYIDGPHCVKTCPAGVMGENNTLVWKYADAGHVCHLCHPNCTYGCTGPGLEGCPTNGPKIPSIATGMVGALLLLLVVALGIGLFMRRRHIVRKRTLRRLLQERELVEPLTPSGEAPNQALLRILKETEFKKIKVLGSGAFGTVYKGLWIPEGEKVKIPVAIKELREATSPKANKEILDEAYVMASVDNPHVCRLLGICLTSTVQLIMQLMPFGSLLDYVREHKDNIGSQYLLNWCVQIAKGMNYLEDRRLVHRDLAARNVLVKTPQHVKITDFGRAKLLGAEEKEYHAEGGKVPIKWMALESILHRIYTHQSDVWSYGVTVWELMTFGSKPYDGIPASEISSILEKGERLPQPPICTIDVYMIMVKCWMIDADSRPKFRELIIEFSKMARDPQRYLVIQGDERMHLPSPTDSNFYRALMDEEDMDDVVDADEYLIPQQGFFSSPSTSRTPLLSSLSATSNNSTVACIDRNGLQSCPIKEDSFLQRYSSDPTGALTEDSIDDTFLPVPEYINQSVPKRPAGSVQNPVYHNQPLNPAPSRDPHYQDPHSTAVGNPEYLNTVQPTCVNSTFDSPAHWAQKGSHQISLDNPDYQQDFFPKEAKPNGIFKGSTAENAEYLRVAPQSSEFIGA
Sequence of ALK (Q9UM73 19-1620): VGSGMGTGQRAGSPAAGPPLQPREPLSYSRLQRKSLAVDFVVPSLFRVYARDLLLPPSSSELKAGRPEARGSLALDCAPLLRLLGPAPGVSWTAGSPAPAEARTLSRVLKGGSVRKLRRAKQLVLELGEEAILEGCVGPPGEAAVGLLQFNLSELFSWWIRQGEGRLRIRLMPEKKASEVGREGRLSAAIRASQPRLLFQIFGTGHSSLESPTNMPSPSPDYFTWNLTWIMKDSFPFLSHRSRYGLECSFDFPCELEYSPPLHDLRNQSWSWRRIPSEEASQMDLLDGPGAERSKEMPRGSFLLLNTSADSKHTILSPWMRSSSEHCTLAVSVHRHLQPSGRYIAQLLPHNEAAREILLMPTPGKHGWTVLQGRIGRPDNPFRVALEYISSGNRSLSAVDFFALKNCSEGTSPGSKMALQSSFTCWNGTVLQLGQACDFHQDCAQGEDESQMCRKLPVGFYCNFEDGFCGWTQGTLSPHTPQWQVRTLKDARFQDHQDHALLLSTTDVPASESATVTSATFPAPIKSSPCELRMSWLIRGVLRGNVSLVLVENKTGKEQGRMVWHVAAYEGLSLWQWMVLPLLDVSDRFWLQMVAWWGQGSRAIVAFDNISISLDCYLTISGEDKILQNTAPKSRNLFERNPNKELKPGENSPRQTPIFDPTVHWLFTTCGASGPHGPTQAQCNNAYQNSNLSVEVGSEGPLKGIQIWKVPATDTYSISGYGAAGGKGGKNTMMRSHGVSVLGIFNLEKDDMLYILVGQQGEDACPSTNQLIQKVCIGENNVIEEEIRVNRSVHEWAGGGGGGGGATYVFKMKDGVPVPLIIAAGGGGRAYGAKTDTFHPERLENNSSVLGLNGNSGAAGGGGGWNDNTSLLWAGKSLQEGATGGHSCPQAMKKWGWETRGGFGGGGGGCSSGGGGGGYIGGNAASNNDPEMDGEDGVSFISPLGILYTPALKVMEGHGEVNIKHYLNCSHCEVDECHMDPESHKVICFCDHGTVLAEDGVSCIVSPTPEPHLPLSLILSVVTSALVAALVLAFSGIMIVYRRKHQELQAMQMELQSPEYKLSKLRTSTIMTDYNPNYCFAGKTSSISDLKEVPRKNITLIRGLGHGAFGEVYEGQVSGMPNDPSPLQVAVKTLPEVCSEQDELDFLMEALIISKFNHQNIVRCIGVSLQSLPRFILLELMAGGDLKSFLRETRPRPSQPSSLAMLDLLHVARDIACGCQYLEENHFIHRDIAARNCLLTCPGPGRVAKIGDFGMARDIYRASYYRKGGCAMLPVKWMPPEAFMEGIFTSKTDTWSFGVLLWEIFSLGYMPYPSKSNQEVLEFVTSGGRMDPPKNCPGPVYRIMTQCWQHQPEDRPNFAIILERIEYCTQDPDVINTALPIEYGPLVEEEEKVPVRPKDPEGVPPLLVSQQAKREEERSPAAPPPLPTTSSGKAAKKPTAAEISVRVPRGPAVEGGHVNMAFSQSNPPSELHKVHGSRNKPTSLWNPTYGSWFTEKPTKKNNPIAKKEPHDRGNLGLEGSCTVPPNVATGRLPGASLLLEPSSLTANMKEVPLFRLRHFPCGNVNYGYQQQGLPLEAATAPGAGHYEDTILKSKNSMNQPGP
T1 sequence (P00533 with tags, fused parts or gaps DEL746-750/T790M/C797S, form open): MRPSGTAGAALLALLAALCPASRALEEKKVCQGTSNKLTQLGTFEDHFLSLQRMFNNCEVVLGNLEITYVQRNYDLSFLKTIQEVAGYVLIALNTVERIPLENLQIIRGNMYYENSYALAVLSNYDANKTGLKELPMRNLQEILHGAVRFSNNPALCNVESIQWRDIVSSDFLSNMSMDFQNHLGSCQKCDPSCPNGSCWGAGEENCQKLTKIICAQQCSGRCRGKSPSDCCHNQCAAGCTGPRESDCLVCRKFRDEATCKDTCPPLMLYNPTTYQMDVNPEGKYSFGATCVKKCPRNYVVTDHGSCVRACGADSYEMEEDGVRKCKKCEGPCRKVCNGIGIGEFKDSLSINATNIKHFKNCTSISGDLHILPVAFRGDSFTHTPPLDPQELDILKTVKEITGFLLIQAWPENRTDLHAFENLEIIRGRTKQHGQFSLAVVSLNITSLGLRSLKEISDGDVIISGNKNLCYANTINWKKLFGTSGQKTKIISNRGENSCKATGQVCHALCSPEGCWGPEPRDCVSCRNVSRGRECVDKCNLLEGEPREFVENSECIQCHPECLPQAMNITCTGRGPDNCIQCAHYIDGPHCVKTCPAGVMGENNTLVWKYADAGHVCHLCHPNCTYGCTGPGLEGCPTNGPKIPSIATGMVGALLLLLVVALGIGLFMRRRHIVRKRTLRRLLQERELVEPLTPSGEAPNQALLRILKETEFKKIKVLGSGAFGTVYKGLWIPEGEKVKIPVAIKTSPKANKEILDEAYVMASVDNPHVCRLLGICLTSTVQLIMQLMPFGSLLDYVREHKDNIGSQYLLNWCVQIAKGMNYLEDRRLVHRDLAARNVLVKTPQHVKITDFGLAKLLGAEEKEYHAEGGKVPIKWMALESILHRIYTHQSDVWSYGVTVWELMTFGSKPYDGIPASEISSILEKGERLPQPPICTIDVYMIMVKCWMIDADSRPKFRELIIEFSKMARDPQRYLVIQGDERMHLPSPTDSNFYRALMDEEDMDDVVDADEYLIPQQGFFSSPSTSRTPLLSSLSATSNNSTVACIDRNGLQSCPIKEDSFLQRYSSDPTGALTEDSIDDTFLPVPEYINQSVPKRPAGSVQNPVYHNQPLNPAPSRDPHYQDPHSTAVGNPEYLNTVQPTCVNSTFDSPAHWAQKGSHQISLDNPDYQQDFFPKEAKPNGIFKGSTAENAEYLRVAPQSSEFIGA

Compound | GI50 [1] | Cmax [2] | Tmax [2] | half-life [2] | AUC(0-t) [2] | IC50 [3] | IC50 [4] | IC50 [5] | GI50 [6]
Cc1cc(Nc2ncc(Cl)c(Nc3ccccc3P(C)(C)=O)n2)cc2c1N1CCN(C)C[C@@H]1CO2 [Compound 25R] | < 20 nM | 61.4 ng/mL | 6.33 h | 6.75 h | 585 ng·h/mL | < 3 nM | ≤ 1 nM | 1 to 50 nM | 
C=CC(=O)N1CCN2c3c(C)cc(Nc4ncc(Cl)c(Nc5ccccc5P(C)(C)=O)n4)cc3OC[C@H]2C1 [Compound 26R] | < 20 nM |  |  |  |  | 3 to 15 nM | ≤ 1 nM | 1 to 50 nM | 
Cc1cc(Nc2ncc(Cl)c(Nc3ccccc3P(C)(C)=O)n2)cc2c1N1CCN(C3CCN(C)CC3)C[C@H]1CO2 [Compound 27S] |  | 140 ng/mL | 10 h | 5.2 h | 2100 ng·h/mL | < 3 nM | ≤ 1 nM | 1 to 50 nM | < 20 nM
CCN1CCC(N2CCN3c4c(C)cc(Nc5ncc(Cl)c(Nc6ccccc6P(C)(C)=O)n5)cc4OC[C@H]3C2)CC1 [Compound 30R] |  |  |  |  |  | < 3 nM | ≤ 1 nM | 1 to 50 nM | 20 to 100 nM
Cc1cc(Nc2ncc(Cl)c(Nc3ccccc3P(C)(C)=O)n2)cc2c1N1CCN(C3CCOCC3)C[C@@H]1CO2 [Compound 31R] |  | 78.4 ng/mL | 6.33 h | 5.18 h | 687 ng·h/mL | < 3 nM | ≤ 1 nM | 1 to 50 nM | 20 to 100 nM
CC(=O)N1CCC(N2CCN3c4c(C)cc(Nc5ncc(Cl)c(Nc6ccccc6P(C)(C)=O)n5)cc4OC[C@H]3C2)CC1 [Compound 32R] |  | 306 ng/mL | 2 h | 1.95 h | 3420 ng·h/mL | < 3 nM | ≤ 1 nM | 1 to 50 nM | 20 to 100 nM
Cc1cc(Nc2ncc(Cl)c(Nc3ccccc3P(C)(C)=O)n2)cc2c1N1CCN(C3CCN(C4CC4)CC3)C[C@@H]1CO2 [Compound 33R] |  | 120 ng/mL | 7.33 h | 3.88 h | 1780 ng·h/mL | < 3 nM | ≤ 1 nM |  | 20 to 100 nM
CN1CCC(N2CCN3c4c(F)cc(Nc5ncc(Cl)c(Nc6ccccc6P(C)(C)=O)n5)cc4OC[C@@H]3C2)CC1 [Compound 35S] |  | 15 ng/mL | 4.33 h | 3.97 h | 179 ng·h/mL | < 3 nM | ≤ 1 nM |  | 20 to 100 nM

Source: patent US20220153766A1, “CONDENSED TRICYCLIC COMPOUND USED AS KINASE INHIBITOR” (Hangzhou Innogate Pharma Co., Ltd., priority 2019, published 2022)
